Columns and labels:
PIK3CD (Human) = PIK3CD (Human) (UniProt O00329); assay: Inhibition of PIK3CD Kinase Activity
PIK3CG = PIK3CG (UniProt P48736); assay: Inhibition of PIK3CG Kinase Activity
PIK3CA (human) = PIK3CA (human) (UniProt P42336); assay: Inhibition of PIK3CA Kinase Activity
PIK3CB (Human) [1] = target: PIK3CB (Human) (UniProt P42338); assay: Inhibition of U937 Cell Proliferation
PIK3CB (Human) [2] = target: PIK3CB (Human) (UniProt P42338); assay: Inhibition of CD9 Antibody Induced Platelet Aggregation
PIK3CB (Human) [3] = target: PIK3CB (Human) (UniProt P42338); assay: Assessment of Neutrophil ROS Response in Human Whole Blood; details: neutrophils
PIK3CB (Human) [4] = target: PIK3CB (Human) (UniProt P42338); assay: Inhibition of Platelet Thrombus Formation under Flow
MAPK14 = MAPK14 (UniProt Q16539)
EGFR = EGFR (UniProt P00533)
CDK2 = CDK2 (UniProt P24941)

PIK3CD (Human), sequence (O00329 whole entry, looked up): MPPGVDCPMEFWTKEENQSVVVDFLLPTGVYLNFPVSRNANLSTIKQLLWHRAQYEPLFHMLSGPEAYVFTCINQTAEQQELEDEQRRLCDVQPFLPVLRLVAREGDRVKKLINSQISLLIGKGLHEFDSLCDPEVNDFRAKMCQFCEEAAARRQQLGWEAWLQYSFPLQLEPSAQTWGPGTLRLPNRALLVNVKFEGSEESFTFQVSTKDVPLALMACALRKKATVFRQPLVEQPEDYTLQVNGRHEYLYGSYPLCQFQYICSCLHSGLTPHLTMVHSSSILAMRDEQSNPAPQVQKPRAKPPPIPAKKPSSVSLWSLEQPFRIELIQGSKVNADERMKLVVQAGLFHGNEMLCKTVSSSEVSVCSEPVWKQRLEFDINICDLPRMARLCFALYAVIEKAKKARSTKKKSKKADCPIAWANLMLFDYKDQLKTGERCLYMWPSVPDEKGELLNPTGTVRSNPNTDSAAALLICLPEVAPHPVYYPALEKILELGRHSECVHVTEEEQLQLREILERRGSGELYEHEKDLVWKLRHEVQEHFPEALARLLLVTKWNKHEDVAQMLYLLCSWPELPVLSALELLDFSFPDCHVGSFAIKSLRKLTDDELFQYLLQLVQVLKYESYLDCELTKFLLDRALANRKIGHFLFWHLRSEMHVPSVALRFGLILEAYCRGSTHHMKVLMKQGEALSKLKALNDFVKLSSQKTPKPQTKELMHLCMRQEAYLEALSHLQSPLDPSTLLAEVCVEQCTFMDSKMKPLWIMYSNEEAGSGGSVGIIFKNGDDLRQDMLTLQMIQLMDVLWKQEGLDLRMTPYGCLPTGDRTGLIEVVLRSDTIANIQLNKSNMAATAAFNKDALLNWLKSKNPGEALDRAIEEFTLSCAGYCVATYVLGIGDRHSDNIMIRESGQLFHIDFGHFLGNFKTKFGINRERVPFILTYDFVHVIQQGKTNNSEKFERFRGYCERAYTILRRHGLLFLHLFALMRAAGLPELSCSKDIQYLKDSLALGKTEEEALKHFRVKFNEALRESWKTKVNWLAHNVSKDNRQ
PIK3CB (Human), sequence (P42338 whole entry, looked up): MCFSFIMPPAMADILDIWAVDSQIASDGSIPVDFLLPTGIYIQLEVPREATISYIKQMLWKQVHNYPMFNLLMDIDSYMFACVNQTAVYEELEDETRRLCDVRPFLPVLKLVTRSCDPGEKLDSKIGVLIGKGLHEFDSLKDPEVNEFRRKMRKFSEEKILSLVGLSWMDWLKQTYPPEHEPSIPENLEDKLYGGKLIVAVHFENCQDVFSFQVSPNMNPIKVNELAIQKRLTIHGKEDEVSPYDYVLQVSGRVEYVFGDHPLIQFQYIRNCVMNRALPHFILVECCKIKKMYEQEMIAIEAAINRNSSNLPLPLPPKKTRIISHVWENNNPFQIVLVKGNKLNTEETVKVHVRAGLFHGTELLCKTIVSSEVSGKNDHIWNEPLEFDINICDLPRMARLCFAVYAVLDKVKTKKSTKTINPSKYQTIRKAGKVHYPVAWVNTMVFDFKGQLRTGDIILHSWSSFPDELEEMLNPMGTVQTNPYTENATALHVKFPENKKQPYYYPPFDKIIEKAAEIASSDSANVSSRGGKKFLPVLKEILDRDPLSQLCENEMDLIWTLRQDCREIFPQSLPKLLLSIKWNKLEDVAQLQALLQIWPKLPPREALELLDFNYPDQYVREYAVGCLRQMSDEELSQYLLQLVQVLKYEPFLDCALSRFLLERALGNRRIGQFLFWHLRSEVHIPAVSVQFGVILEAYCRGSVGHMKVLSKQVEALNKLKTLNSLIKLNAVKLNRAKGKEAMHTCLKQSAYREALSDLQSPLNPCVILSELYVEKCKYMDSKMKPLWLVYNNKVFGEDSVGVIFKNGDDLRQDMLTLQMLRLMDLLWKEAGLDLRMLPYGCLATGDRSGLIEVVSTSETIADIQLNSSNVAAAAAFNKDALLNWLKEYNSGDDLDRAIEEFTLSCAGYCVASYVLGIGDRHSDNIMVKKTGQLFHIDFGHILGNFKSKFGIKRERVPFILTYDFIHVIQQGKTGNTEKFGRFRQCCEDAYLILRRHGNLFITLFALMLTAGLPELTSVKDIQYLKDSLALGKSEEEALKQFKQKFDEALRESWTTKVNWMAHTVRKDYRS
PIK3CA (human), sequence (P42336 whole entry, looked up): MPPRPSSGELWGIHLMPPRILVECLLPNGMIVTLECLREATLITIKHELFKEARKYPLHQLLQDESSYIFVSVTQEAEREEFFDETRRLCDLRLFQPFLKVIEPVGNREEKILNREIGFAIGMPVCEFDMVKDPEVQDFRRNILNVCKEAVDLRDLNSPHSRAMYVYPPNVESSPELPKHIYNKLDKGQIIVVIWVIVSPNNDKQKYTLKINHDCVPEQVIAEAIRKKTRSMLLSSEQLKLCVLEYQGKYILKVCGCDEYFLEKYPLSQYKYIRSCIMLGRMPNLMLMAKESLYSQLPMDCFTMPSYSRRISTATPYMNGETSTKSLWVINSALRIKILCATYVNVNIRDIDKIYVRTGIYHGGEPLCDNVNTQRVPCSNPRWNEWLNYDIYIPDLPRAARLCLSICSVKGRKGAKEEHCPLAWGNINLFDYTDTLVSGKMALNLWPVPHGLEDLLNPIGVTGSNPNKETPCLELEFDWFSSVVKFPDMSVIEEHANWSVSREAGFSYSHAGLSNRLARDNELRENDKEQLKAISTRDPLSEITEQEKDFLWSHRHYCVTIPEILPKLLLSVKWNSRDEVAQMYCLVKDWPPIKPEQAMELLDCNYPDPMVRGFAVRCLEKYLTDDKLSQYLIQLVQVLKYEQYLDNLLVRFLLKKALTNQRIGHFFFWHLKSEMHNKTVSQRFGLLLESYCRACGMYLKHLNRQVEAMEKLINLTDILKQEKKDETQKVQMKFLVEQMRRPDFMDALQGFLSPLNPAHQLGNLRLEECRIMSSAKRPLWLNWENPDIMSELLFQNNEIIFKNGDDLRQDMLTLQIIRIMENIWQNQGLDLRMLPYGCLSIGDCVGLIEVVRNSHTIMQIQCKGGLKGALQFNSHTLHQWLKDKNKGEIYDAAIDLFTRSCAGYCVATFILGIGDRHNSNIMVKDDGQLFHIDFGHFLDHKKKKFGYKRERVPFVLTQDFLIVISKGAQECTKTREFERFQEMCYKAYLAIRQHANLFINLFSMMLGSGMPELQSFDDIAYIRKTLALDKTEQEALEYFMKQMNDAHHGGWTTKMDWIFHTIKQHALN
PIK3CG, sequence (P48736 whole entry, looked up): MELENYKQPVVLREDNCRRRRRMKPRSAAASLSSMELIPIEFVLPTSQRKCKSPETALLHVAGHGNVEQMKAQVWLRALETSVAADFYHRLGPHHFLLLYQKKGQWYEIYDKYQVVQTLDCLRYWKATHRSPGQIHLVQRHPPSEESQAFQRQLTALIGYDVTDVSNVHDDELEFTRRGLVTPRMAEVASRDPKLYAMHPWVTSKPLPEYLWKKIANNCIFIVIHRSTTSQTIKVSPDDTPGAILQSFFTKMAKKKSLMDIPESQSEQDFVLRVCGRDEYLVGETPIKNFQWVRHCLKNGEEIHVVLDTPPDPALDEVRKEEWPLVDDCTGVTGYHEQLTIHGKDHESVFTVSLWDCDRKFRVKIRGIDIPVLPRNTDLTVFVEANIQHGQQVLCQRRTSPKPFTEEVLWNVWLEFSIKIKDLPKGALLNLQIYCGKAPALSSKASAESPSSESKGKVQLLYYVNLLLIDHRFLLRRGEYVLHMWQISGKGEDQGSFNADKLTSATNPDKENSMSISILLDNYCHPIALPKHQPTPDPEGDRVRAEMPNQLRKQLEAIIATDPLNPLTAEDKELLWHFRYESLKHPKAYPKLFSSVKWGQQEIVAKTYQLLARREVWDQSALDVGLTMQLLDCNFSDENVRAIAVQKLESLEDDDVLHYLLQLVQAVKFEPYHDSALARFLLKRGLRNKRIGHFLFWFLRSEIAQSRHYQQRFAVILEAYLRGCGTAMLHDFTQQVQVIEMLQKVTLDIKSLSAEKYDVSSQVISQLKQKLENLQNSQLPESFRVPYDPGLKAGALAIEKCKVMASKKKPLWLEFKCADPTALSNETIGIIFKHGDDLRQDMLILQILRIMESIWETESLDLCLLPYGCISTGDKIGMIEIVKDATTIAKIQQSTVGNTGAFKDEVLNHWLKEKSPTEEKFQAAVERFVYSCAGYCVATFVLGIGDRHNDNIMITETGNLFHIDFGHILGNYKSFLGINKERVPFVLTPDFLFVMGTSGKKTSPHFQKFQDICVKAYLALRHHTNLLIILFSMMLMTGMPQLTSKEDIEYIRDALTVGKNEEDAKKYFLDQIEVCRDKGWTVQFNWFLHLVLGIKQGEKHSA
MAPK14, sequence (Q16539 whole entry, looked up): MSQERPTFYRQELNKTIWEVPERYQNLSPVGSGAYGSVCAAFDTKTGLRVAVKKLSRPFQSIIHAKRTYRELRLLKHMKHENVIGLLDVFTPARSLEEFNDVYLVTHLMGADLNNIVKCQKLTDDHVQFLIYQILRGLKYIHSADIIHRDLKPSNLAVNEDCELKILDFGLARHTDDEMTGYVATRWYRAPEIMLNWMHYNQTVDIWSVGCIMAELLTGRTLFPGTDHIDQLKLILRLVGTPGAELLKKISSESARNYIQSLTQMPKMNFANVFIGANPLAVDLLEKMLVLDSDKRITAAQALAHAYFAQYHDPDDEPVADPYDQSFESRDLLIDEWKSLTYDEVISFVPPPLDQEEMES

SMILES: Cc1cc(CNc2ccccc2)c2oc(-c3ccncc3)cc(=O)c2c1
- IC50 (PIK3CD (Human)): 10 µM
- IC50 (PIK3CG): 10 µM

SMILES: Cc1cc(C(C)Nc2cc(F)cc(F)c2)c2nc(N3CCOCC3)cc(=O)n2c1 (stereo not drawn)
- IC50 (PIK3CA (human)): > 5 µM

SMILES: O=c1cc(-c2ccncc2)oc2c(OCc3ccccc3)cccc12
- IC50 (PIK3CG): 10 µM

SMILES: Cc1cc(-c2ccccc2)c2nc(-c3ccncc3)cc(=O)n2c1
- IC50 (PIK3CD (Human)): > 10 µM
- IC50 (PIK3CG): > 10 µM

SMILES: Cc1cc(COc2ccccc2)c2oc(-c3ccncc3)cc(=O)c2c1
- IC50 (PIK3CG): 10 µM

SMILES: CC(=O)Nc1ccccc1NCc1cc(C)cc2c(=O)cc(-c3ccncc3)oc12
- IC50 (PIK3CD (Human)): 1 µM
- IC50 (PIK3CG): 5 µM

SMILES: Cc1cc(C(C)Nc2ccccc2)c2oc(-c3ccncc3)cc(=O)c2c1 (stereo not drawn)
- IC50 (PIK3CB (Human) [1]): 5 µM
- IC50 (PIK3CB (Human) [2]): 0.1 µM
- IC50 (PIK3CB (Human) [3]): 0.005 µM
- IC50 (PIK3CB (Human) [4]): 0.5 µM

SMILES: CC(Nc1ccccc1N)c1cccc2c(=O)cc(-c3ccncc3)oc12 (stereo not drawn)
- IC50 (PIK3CD (Human)): 0.5 µM
- IC50 (PIK3CB (Human) [1]): 20 µM
- IC50 (PIK3CB (Human) [2]): 0.2 µM
- IC50 (PIK3CB (Human) [3]): 0.078 µM
- IC50 (PIK3CG): 15 µM
- IC50 (PIK3CB (Human) [4]): 0.25 µM

SMILES: Cc1cc(C(C)Nc2cccc(Cl)c2)c2nc(N3CCOCC3)cc(=O)n2c1 (stereo not drawn)
- IC50 (PIK3CA (human)): > 5 µM

SMILES: Cc1cc(C(C)Nc2ccc(Cl)cc2)c2nc(N3CCOCC3)cc(=O)n2c1 (stereo not drawn)
- IC50 (PIK3CA (human)): > 5 µM

SMILES: Cc1cc(C(C)Nc2cccc(C(F)(F)F)c2)c2oc(-c3ccncc3)cc(=O)c2c1 (stereo not drawn)
- IC50 (PIK3CG): 10 µM

SMILES: Cc1cccc(NC(C)c2cc(C)cn3c(=O)cc(N4CCOCC4)nc23)c1 (stereo not drawn)
- IC50 (PIK3CA (human)): > 5 µM

SMILES: Cc1cc(C(C)Nc2ccc(Cl)c(Cl)c2)c2nc(N3CCOCC3)cc(=O)n2c1 (stereo not drawn)
- IC50 (PIK3CA (human)): > 5 µM

SMILES: Cc1cc(C(C)Oc2ccccc2)c2oc(-c3ccncc3)cc(=O)c2c1 (stereo not drawn)
- IC50 (PIK3CG): 20 µM

SMILES: Cc1cc(C(C)Nc2cccc(C(F)(F)F)c2)c2nc(N3CCOCC3)cc(=O)n2c1 (stereo not drawn)
- IC50 (PIK3CA (human)): > 5 µM

SMILES: Cc1cc(C(C)n2c(C(F)(F)F)nc3ccccc32)c2oc(-c3ccncc3)cc(=O)c2c1 (stereo not drawn)
- IC50 (PIK3CD (Human)): 10 µM
- IC50 (PIK3CG): 10 µM

SMILES: O=c1cc(-c2ccncc2)[nH]c2c(-c3ccccc3)cccc12
- IC50 (PIK3CD (Human)): 10 µM

SMILES: Cc1cc(C(C)Nc2ccccc2)c2nc(N3CCOCC3)cc(=O)n2c1 (stereo not drawn)
- IC50 (MAPK14): > 10 µM
- IC50 (EGFR): > 10 µM
- IC50 (PIK3CA (human)): > 5 µM
- IC50 (CDK2): > 10 µM

SMILES: O=c1cc(-c2ccncc2)oc2c(NCc3ccccc3)cccc12
- IC50 (PIK3CD (Human)): 0.2 µM

SMILES: Cc1cc(N[C@H](C)c2ccccc2)c2nc(-c3ccncc3)cc(=O)n2c1
- IC50 (PIK3CD (Human)): 1 µM
- IC50 (PIK3CG): 20 µM

SMILES: Cc1cc(CN(C)c2ccccc2)c2nc(N3CCOCC3)cc(=O)n2c1
- IC50 (PIK3CA (human)): > 5 µM

SMILES: Cc1cc(C(C)Nc2ccccn2)c2nc(N3CCOCC3)cc(=O)n2c1 (stereo not drawn)
- IC50 (PIK3CA (human)): > 5 µM

Source: the Kinase Knowledgebase extract (Sharma et al. 2016)
